From ChEMBL document CHEMBL4507260 (2021)

Assays:
Settings in all cases: Compound concentration 1000.0 nM
[1] = target: Activin receptor type-2A (Homo sapiens) (UniProt P27037)
[2] = target: RAC-beta serine/threonine-protein kinase (Homo sapiens) (UniProt P31751)
[3] = target: RAC-gamma serine/threonine-protein kinase (Homo sapiens) (UniProt Q9Y243)
[4] = target: ALK tyrosine kinase receptor (Homo sapiens) (UniProt Q9UM73)
[5] = target: Bone morphogenetic protein receptor type-1A (Homo sapiens) (UniProt P36894)
[6] = target: Bone morphogenetic protein receptor type-2 (Homo sapiens) (UniProt Q13873)
[7] = target: Calcium/calmodulin-dependent protein kinase type 1B (Homo sapiens) (UniProt Q6P2M8)
[8] = target: Cyclin-dependent kinase 2 (Homo sapiens) (UniProt P24941)
[9] = target: Cyclin-dependent kinase 8 (Homo sapiens) (UniProt P49336)
[10] = target: Cyclin-dependent kinase-like 2 (Homo sapiens) (UniProt Q92772)
[11] = target: Discoidin domain-containing receptor 2 (Homo sapiens) (UniProt Q16832)
Discoidin domain-containing receptor 2 (Homo sapiens), sequence (Q16832 whole entry, the tested form may be a part): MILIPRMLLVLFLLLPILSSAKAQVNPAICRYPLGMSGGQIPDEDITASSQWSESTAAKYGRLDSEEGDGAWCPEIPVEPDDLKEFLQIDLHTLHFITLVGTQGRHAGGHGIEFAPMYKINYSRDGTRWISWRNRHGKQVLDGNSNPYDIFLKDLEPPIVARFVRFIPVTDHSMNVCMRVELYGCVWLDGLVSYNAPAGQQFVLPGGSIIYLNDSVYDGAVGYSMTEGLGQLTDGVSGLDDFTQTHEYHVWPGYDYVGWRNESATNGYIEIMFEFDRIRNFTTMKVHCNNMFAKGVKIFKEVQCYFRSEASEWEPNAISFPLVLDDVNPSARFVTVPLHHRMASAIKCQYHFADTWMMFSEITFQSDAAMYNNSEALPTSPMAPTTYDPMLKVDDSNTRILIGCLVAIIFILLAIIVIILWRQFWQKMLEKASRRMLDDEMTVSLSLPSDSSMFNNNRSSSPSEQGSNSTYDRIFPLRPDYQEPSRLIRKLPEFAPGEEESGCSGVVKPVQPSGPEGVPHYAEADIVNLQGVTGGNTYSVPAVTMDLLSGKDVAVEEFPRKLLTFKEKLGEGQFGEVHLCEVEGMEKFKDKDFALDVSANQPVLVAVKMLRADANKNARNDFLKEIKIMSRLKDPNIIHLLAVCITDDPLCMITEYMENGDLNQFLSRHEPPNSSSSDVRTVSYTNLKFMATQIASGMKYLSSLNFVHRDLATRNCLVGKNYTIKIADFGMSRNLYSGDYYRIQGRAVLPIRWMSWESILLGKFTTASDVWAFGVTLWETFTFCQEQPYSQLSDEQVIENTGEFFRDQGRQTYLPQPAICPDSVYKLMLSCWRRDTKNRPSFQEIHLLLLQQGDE

[12] = target: Dual specificity tyrosine-phosphorylation-regulated kinase 1A (Homo sapiens) (UniProt Q13627)
[13] = target: Ephrin type-B receptor 3 (Homo sapiens) (UniProt P54753)
[14] = target: Fibroblast growth factor receptor 2 (Homo sapiens) (UniProt P21802)
[15] = target: Tyrosine-protein kinase Fgr (Homo sapiens) (UniProt P09769)
[16] = test system: Receptor-type tyrosine-protein kinase FLT3 (Homo sapiens), P36888 [D835H]
[17] = test system: eIF-2-alpha kinase GCN2 (Homo sapiens), Q9P2K8 [S808G]
[18] = target: Glycogen synthase kinase-3 beta (Homo sapiens) (UniProt P49841)
[19] = target: Interleukin-1 receptor-associated kinase 4 (Homo sapiens) (UniProt Q9NWZ3)
[20] = target: Mitogen-activated protein kinase 10 (Homo sapiens) (UniProt P53779)
[21] = test system: Mast/stem cell growth factor receptor Kit (Homo sapiens), P10721 [L576P]
[22] = target: Serine/threonine-protein kinase LATS1 (Homo sapiens) (UniProt O95835)
[23] = target: Mitogen-activated protein kinase kinase kinase kinase 2 (Homo sapiens) (UniProt Q12851)
[24] = target: MAP/microtubule affinity-regulating kinase 3 (Homo sapiens) (UniProt P27448)
[25] = target: Mitogen-activated protein kinase kinase kinase 11 (Homo sapiens) (UniProt Q16584)
[26] = target: Macrophage-stimulating protein receptor (Homo sapiens) (UniProt Q04912)
Macrophage-stimulating protein receptor (Homo sapiens), sequence (Q04912 25-304 limits assumed): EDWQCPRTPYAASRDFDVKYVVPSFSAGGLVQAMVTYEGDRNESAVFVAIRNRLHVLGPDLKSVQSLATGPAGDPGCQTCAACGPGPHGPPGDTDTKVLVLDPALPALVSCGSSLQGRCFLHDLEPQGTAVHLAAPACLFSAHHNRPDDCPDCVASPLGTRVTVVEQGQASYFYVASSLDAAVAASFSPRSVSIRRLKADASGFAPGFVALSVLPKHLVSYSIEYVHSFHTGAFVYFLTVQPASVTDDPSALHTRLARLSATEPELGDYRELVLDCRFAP
Macrophage-stimulating protein receptor (Homo sapiens), sequence (Q04912 310-1400 limits assumed): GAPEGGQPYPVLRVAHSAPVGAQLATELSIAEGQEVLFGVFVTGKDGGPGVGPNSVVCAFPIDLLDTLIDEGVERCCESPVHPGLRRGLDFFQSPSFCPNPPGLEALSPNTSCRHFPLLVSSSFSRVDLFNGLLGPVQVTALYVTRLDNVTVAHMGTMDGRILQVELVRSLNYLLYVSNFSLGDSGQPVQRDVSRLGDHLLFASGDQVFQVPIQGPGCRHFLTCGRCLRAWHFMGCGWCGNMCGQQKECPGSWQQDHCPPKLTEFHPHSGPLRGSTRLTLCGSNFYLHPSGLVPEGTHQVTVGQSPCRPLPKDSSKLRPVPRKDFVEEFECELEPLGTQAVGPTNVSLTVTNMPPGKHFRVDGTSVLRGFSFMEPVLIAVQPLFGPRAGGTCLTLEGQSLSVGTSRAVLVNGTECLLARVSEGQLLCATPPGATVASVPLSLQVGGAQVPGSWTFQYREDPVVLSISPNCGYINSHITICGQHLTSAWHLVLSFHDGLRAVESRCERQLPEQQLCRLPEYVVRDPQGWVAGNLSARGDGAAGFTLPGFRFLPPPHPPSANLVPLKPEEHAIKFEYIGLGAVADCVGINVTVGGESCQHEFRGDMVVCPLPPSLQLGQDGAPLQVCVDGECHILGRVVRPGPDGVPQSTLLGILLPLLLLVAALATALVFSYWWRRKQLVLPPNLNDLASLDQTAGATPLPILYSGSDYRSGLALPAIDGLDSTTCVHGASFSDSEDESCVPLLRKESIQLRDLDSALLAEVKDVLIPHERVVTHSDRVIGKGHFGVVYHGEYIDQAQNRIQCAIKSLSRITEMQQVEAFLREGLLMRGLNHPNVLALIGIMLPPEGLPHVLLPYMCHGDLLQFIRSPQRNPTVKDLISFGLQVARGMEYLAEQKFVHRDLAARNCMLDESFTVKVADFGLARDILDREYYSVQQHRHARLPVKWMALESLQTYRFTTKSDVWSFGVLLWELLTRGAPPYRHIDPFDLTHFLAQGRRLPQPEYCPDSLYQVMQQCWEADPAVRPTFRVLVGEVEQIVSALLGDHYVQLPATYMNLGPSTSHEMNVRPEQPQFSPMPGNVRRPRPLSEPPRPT

[27] = target: Myosin light chain kinase 2, skeletal/cardiac muscle (Homo sapiens) (UniProt Q9H1R3)
[28] = target: Serine/threonine-protein kinase NLK (Homo sapiens) (UniProt Q9UBE8)
[29] = target: Mitogen-activated protein kinase 14 (Homo sapiens) (UniProt Q16539)
Mitogen-activated protein kinase 14 (Homo sapiens), sequence (Q16539 whole entry): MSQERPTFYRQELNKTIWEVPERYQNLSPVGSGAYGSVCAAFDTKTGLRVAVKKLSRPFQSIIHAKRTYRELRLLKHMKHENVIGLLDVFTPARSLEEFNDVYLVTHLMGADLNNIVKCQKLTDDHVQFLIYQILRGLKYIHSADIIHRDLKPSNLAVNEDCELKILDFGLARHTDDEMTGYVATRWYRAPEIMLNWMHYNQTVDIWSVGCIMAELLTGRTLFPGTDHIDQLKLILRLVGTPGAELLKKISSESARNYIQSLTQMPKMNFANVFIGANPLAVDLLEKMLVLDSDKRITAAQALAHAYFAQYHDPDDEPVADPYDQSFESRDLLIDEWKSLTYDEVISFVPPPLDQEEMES

[30] = target: 3-phosphoinositide-dependent protein kinase 1 (Homo sapiens) (UniProt O15530)
[31] = target: Cyclin-dependent kinase 15 (Homo sapiens) (UniProt Q96Q40)
[32] = test system: Phosphatidylinositol 4,5-bisphosphate 3-kinase catalytic subunit alpha isoform (Homo sapiens), P42336 [H1047L]
[33] = target: Phosphatidylinositol 5-phosphate 4-kinase type-2 gamma (Homo sapiens) (UniProt Q8TBX8)
[34] = target: cAMP-dependent protein kinase catalytic subunit alpha (Homo sapiens) (UniProt P17612)
[35] = target: Membrane-associated tyrosine- and threonine-specific cdc2-inhibitory kinase (Homo sapiens) (UniProt Q99640)
[36] = target: Receptor-interacting serine/threonine-protein kinase 2 (Homo sapiens) (UniProt O43353)
[37] = target: Ribosomal protein S6 kinase alpha-4 (Homo sapiens) (UniProt O75676)
[38] = target: Ribosomal protein S6 kinase alpha-6 (Homo sapiens) (UniProt Q9UK32)
[39] = target: SRSF protein kinase 1 (Homo sapiens) (UniProt Q96SB4)
[40] = target: Tyrosine-protein kinase receptor TYRO3 (Homo sapiens) (UniProt Q06418)
[41] = target: Serine/threonine-protein kinase ULK2 (Homo sapiens) (UniProt Q8IYT8)
[42] = target: Serine/threonine-protein kinase ULK3 (Homo sapiens) (UniProt Q6PHR2)
[43] = target: Phosphatidylinositol 3-kinase catalytic subunit type 3 (Homo sapiens) (UniProt Q8NEB9)
[44] = target: Serine/threonine-protein kinase WNK1 (Homo sapiens) (UniProt Q9H4A3)
[45] = target: Mitogen-activated protein kinase kinase kinase 20 (Homo sapiens) (UniProt Q9NYL2)
Mitogen-activated protein kinase kinase kinase 20 (Homo sapiens), sequence (Q9NYL2 2-800 limits assumed): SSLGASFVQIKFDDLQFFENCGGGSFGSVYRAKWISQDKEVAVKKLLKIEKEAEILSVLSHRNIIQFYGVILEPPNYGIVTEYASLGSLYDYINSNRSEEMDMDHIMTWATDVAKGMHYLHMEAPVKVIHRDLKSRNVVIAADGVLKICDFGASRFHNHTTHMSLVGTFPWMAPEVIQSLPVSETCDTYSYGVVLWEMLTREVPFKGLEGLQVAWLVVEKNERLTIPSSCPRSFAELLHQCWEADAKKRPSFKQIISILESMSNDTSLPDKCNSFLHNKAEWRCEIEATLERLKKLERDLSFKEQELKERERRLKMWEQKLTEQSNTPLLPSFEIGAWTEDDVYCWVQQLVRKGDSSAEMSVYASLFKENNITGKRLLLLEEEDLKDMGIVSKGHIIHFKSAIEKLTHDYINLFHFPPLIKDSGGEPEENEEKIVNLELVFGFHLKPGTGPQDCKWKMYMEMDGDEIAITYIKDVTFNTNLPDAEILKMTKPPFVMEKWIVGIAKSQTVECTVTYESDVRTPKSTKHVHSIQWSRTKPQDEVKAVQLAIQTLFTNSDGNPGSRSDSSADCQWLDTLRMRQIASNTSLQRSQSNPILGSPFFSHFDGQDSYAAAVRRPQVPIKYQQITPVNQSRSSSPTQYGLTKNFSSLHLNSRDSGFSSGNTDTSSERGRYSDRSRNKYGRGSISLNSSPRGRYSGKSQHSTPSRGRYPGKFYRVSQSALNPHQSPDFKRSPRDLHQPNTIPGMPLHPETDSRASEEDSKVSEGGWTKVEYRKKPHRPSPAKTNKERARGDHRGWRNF

ALK tyrosine kinase receptor (Homo sapiens), sequence (Q9UM73 19-1620 limits assumed): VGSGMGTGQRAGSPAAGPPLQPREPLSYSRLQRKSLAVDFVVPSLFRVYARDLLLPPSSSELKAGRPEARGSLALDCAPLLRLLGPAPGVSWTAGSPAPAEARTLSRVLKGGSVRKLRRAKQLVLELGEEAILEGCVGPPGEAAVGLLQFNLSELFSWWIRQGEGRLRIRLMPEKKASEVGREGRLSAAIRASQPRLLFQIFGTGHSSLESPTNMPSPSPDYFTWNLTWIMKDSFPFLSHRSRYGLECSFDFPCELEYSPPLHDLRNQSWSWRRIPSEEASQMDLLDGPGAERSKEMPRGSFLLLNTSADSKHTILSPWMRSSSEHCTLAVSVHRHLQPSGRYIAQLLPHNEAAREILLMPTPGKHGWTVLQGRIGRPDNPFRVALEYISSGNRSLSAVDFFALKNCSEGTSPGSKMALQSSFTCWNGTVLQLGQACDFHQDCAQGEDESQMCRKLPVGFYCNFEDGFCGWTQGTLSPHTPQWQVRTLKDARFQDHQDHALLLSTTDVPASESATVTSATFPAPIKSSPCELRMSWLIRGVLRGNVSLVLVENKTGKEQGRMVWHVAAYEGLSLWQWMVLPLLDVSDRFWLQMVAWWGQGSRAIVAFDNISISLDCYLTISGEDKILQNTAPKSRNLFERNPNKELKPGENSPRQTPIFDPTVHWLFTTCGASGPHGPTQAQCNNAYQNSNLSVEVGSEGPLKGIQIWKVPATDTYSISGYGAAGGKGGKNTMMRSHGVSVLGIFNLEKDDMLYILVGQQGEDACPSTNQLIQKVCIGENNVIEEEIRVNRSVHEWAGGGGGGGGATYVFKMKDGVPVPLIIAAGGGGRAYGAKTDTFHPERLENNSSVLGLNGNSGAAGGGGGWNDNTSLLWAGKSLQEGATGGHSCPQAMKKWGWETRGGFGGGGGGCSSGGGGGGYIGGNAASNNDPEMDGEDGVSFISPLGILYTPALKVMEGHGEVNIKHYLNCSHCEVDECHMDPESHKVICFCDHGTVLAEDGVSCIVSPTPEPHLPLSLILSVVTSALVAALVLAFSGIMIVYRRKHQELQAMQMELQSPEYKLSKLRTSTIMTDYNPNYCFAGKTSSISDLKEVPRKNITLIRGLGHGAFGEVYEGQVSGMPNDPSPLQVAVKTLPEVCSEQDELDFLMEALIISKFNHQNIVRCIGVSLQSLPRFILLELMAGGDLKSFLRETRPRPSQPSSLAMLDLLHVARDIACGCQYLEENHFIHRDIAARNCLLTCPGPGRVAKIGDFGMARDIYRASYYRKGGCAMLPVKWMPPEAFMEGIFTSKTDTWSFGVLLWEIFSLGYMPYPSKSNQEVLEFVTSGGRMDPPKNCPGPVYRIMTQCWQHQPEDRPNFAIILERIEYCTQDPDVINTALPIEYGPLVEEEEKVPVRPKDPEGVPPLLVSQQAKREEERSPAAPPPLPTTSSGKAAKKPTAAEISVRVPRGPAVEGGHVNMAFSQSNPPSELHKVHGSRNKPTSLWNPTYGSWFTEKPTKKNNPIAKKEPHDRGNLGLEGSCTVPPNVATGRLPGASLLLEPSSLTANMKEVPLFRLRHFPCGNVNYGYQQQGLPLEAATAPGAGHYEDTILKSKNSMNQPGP

c1ccc(N2CCN(Cc3nc4ccccc4[nH]3)CC2)nc1 [ABT-724]
residual activity [1]: 100% | residual activity [2]: 100% | residual activity [3]: 100% | residual activity [4]: 91% | residual activity [5]: 86% | residual activity [6]: 100% | residual activity [7]: 0% | residual activity [8]: 100% | residual activity [9]: 100% | residual activity [10]: 100% | residual activity [11]: 100% | residual activity [12]: 100% | residual activity [13]: 100% | residual activity [14]: 96% | residual activity [15]: 100% | residual activity [16]: 100% | residual activity [17]: 65% | residual activity [18]: 93% | residual activity [19]: 100% | residual activity [20]: 100% | residual activity [21]: 100% | residual activity [22]: 100% | residual activity [23]: 100% | residual activity [24]: 100% | residual activity [25]: 100% | residual activity [26]: 100% | residual activity [27]: 91% | residual activity [28]: 100% | residual activity [29]: 89% | residual activity [30]: 89% | residual activity [31]: 95% | residual activity [32]: 100% | residual activity [33]: 86% | residual activity [34]: 91% | residual activity [35]: 100% | residual activity [36]: 100% | residual activity [37]: 100% | residual activity [38]: 100% | residual activity [39]: 100% | residual activity [40]: 93% | residual activity [41]: 100% | residual activity [42]: 100% | residual activity [43]: 100% | residual activity [44]: 100% | residual activity [45]: 92%

CSc1cccnc1N1CCN(Cc2nc3ccccc3[nH]2)CC1 [A-769]
residual activity [1]: 69% | residual activity [2]: 98% | residual activity [3]: 92% | residual activity [4]: 70% | residual activity [5]: 100% | residual activity [6]: 80% | residual activity [7]: 100% | residual activity [8]: 95% | residual activity [9]: 87% | residual activity [10]: 84% | residual activity [11]: 89% | residual activity [12]: 79% | residual activity [13]: 93% | residual activity [14]: 100% | residual activity [15]: 100% | residual activity [16]: 65% | residual activity [17]: 100% | residual activity [18]: 78% | residual activity [19]: 74% | residual activity [20]: 66% | residual activity [21]: 92% | residual activity [22]: 100% | residual activity [23]: 100% | residual activity [24]: 98% | residual activity [25]: 100% | residual activity [26]: 100% | residual activity [27]: 100% | residual activity [28]: 100% | residual activity [29]: 100% | residual activity [30]: 99% | residual activity [31]: 100% | residual activity [32]: 87% | residual activity [33]: 81% | residual activity [34]: 92% | residual activity [35]: 100% | residual activity [36]: 100% | residual activity [37]: 73% | residual activity [38]: 81% | residual activity [39]: 100% | residual activity [40]: 100% | residual activity [41]: 94% | residual activity [42]: 81% | residual activity [43]: 94% | residual activity [44]: 100% | residual activity [45]: 100%
